Measured values as given in the NIST ThermoML archive (doi:10.1016/j.tca.2019.178383).

Assay: xn = mol fraction of the nth substance listed
Conditions: for surface tension liquid-gas: Maximal bubble pressure; for mass density: 100 kPa, Liquid, Vibrating tube method

CCn1cc[n+](CCOC)c1.O=S(=O)([O-])C(F)(F)F + CCCO
Conditions | mass density, 288.15 K [kg/m3] | mass density, 293.15 K [kg/m3] | mass density, 298.15 K [kg/m3] | surface tension liquid-gas, 288.15 K [mN/m] | surface tension liquid-gas, 293.15 K [mN/m] | surface tension liquid-gas, 298.15 K [mN/m] | surface tension liquid-gas, 303.15 K [mN/m]
x1 = 0.0987 | 944.376 | 940.25 | 936.122 | 23.4 | 23.1 | 22.7 | 22.4
x1 = 0.1999 | 1043.54 | 1039.33 | 1035.12 | 24.2 | 23.8 | 23.5 | 23.1
x1 = 0.2982 | 1114.64 | 1110.4 | 1106.16 | 25 | 24.7 | 24.3 | 24
x1 = 0.3994 | 1171.5 | 1167.24 | 1162.99 | 26.2 | 25.9 | 25.5 | 25.1
x1 = 0.499 | 1215.82 | 1211.56 | 1207.32 | 27.7 | 27.4 | 27.1 | 26.7
x1 = 0.5993 | 1252.38 | 1248.12 | 1243.87 | 29.5 | 29.2 | 28.9 | 28.6
x1 = 0.6979 | 1282.09 | 1277.83 | 1273.58 | 31.5 | 31.3 | 31 | 30.7
x1 = 0.8009 | 1308.48 | 1304.21 | 1299.97 | 33 | 32.7 | 32.5 | 32.2
x1 = 0.8992 | 1329.95 | 1325.68 | 1321.43 | 34.8 | 34.6 | 34.4 | 34.2
x1 = 1 | 1348.94 | 1344.66 | 1340.41 | 36.3 | 36.1 | 35.8 | 35.5
